Test results from patent publication US10869871B2, “Compositions and methods of modulating short-chain dehydrogenase activity” (CASE WESTERN RESERVE UNIVERSITY, priority 2013, dated 2020).

What was measured:
[1] = test system: bone marrow; test: Homing of CFSE labeled bone marrow cells to marrow of irradiated recipient mice; assay type: in vivo, mouse; conditions: for effect on SW033291 induced increase of homing: co-administered with SW033291 10 mg/kg IP
Procedure: Drugs are administered following radiation, following the transplant, and again at 8 hours after the transplant.

[2] = test system: mouse bone marrow; test: Hematopoietic colonies from wild-type mouse bone marrow treated ex vivo; assay type: cell-based; conditions: 1 μM ex vivo on ice for 2 hours
Excerpt: Treated marrow is again then plated into methylcellulose for counting of hematopoietic colonies.

[3] = biological target: T1, recombinant 15-PGDH (Homo sapiens (Human), UniProt P15428); test: Inhibition of enzymatic activity of recombinant 15-PGDH in an in vitro assay; assay type: biochemical; conditions: FIG. 97
[4] = test system: 15-PGDH-luciferase fusion protein reporter in Vaco-9M (V9M) cell line; test: 15-PGDH-luciferase fusion reporter induction in Vaco-9M (V9M) cells; assay type: cell-based
Procedure: Some residual activity is seen for isomer B when added at 3.2 μM concentration. The small residual activity of isomer A may be due to possible 3% contamination with some residual isomer B.

[5] = biological target: T1, recombinant 15-PGDH; test: Thermal melt shift of recombinant 15-PGDH protein (SYPRO Orange); assay type: binding
[6] = test system: 15-PGDH-luciferase fusion reporter in V9m, LS174T and V503 colon cancer cell lines; test: 15-PGDH-luciferase fusion reporter induction in colon cancer cell lines; assay type: cell-based; conditions: for luciferase activity of 15-PGDH luciferase fusion cells: V9m, LS174T, V503, relative to DMSO
[7] = test system: 15-PGDH protein; test: Western blot of 15-PGDH protein levels in treated cell lines; assay type: cell-based; conditions: […] compound for 48 hours
[8] = test system: A549 cells; test: PGE2 levels in medium of IL1-beta stimulated A549 cells; assay type: cell-based
[9] = test system: cell culture; test: Toxicity: concentration needed to decrease cell numbers in a cell culture assay; assay type: cell-based
Procedure: Time to inhibition refers to the time needed to inhibit the generation of NADH by 15-PGDH from the moment with drug is added into the reaction mix. Delta Tm refers to the shift in melting temperature of recombinant 15-PGDH in the presence of drug (with cofactor NADH also present). Concentration of Full Cell Line Reporter Induction refers to the concentration of drug that needs to be added to reporter cell line to achieve maximal induction of the 15-PGDH-luciferase gene fusion reporter cassette, as measured by luciferase assays. Hepatocyte stability refers to the half-life of compound in the presence of hepatocytes in culture. Toxicity refers to the concentration of compound needed to decrease cell numbers in a cell culture assay.

[10] = Immediate toxicity after IP injection into mice; assay type: in vivo; conditions: injected IP into mice at 50 mg/kg body weight
[11] = test system: cell lines; test: PGE2 production by cell lines; assay type: cell-based; conditions: read-out: EC50 for increase of PGE2 production by cell lines
[12] = Stability when incubated with liver extracts; assay type: in vitro ADME; conditions: incubated with mouse, rat and human liver extracts
[13] = test system: PGE2 in colon, bone marrow, liver, lung; test: PGE2 in mouse tissues after IP injection; assay type: in vivo
[14] = Chemical stability in aqueous solutions; assay type: physicochemical; conditions: over broad pH range

T1 sequence (P15428 whole entry, the tested form may be a part): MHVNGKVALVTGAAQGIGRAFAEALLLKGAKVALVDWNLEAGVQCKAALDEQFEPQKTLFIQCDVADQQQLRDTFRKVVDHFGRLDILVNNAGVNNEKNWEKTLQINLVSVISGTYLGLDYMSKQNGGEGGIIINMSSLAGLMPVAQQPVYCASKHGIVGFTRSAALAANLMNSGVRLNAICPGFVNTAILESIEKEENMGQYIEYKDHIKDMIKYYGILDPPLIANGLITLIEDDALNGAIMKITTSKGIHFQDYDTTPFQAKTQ

## CCCCc1nn(-c2ccccc2C(F)(F)F)c(=O)n1Cc1ccc(-c2ccccc2S(=O)(=O)NC(=O)c2sccc2C)cc1 [L-161,982]
[1]
  effect on SW033291 induced increase of homing: near completely blocked

## COc1ccc2cc(OCC3(C(=O)O)CN(C(=O)c4ccc(F)cc4)C3)ccc2c1 [PF-04418948]
[1]
  effect on SW033291 induced increase of homing: partially blocked

## CCCCC[C@H](O)/C=C/[C@H]1[C@H](O)CC(=O)[C@@H]1C/C=C\CCCC(=O)O [PGE2, prostaglandin E2]
[2]
  increase in number of bone marrow derived colonies relative to SW033291: lesser increase

## CCCC[S@](C)(O)c1sc2nc(-c3cccs3)cc(-c3ccccc3)c2c1N [SW033291 isomer B]
[3]
  IC50 lower than the parent racemic mixture: 40%
[4]
  concentration giving full reporter activity: 0.1 µM
[5]; Differential Scanning Fluorimetry, DMSO control 50.5° C.
  melting temperature of 15-PGDH: 68 °C

## COc1ccc(OC)c(N(CC(=O)Nc2cccnc2)S(=O)(=O)c2ccccc2)c1 [SW054384]
[6]
  luciferase activity of 15-PGDH luciferase fusion cells: increase luciferase activity
[5]; 10 μM and 100 μM cofactor NAD or NADH
  direct binding to 15-PGDH by melting temperature shift: cannot be demonstrated to bind 15-PGDH
[7]
  levels of 15-PGDH protein (western blot): increase levels of 15-PGDH protein

## O=C(c1ccc2nc(-c3ccccc3)c(-c3ccccc3)nc2c1)N1CCCCC1 [SW145753]
[6]
  luciferase activity of 15-PGDH luciferase fusion cells: increase luciferase activity
[7]
  levels of 15-PGDH protein (western blot): increase levels of 15-PGDH protein
[8]; IL1-beta 23 hours, compound added for last 5 hours
  PGE2 level in medium, reflecting 15-PGDH activity: clear inhibition of 15-PGDH activity

## CCCC[S+]([O-])c1sc2nc(-c3cccs3)ccc2c1N (stereo not shown) [SW206980]
[9]
  Toxicity: >7.5 µM
[8]; IL-1β 16 h, compound 8 h
  highest PGE2 level achieved in medium: 2500 pg/mL

## CCCC[S+]([O-])c1sc2nc(-c3nccs3)ccc2c1N (stereo not shown) [SW206992]
[6]; concentration to achieve maximal induction of 15-PGDH-luciferase reporter
  Concentration for Full Cell Line Reporter Induction: >1 µM
[9]
  Toxicity: >7.5 µM
[8]; IL-1β 16 h, compound 8 h
  concentration at which maximal PGE2 effect attained: 2.5 µM
  highest PGE2 level achieved in medium: 2100 pg/mL

## CCCC[S+]([O-])c1sc2nc(-c3nccs3)cc(-c3cnc(C)n3C)c2c1N (stereo not shown) [SW209415, 2-(butylsulfinyl)-4-(1,2-dimethyl-1H-imidazol-5-yl)-6-(thiazol-2-yl)thieno[2,3-b]pyridin-3-amine]
[1]; 10 mg/kg IP, FACS 16 hours post-transplant
  increase of homed cells in recipient mouse bone marrow: approximately 2.5 fold

## CCCCC(C)(C)[C@H](O)/C=C/[C@H]1[C@H](O)CC(=O)[C@@H]1C/C=C\CCCC(=O)O [dmPGE2, 16,16-dimethyl PGE2]
[2]
  increase in number of bone marrow derived colonies relative to SW033291: slightly greater increase

## CCCC[S+]([O-])c1sc2nc(-c3nccs3)cc(-c3cnc(C)n3C)c2c1N (stereo not shown) [formula (XIII)]
[10]
  immediate toxicity over 24 hours: no immediate toxicity
[1]; mouse, 10 mg/kg body weight
  homing of hematopoietic stem cells following bone marrow transplantation: increases homing of hematopoietic stem cells
[11]
  EC50: ~0.02 µM
[12]
  chemical stability with liver extracts: chemically stable when incubated with mouse, rat and human liver extracts
[13]; IP dose of 10 mg/kg body weight
  PGE2 levels in colon, lung, liver and bone marrow: elevates PGE2 levels
[14]
  chemical stability in aqueous solutions: chemically stable in aqueous solutions over broad pH range

## COc1ccc2c(c1)c(CC(=O)O)c(C)n2C(=O)c1ccc(Cl)cc1 [indomethacin]
[1]
  effect on SW033291 induced increase of homing: near completely blocked

## (+) SW209415
[13]; IP 0.5, 1.5 or 5 mg/kg, peak at 3 hours
  peak PGE2 levels in lung, liver, colon and bone marrow: approximately double those of vehicle control
